In ChEMBL document CHEMBL4808180, “Identification of 2,2-Dimethylbutanoic Acid (HST5040), a Clinical Development Candidate for the Treatment of Propionic Acidemia and Methylmalonic Acidemia” (J Med Chem, 2021):

How the values were obtained:
[1] = Protein binding in Gottingen minipig plasma at 40 uM incubated for 4 hrs by equilibrium dialysis; type: ADME, cell-free, Sus scrofa domesticus; conditions: pig, read-out: PPB (converted)
[2] = Cmax in CD1 mouse at 100 mg/kg, po; type: ADME, organism-based; design: route oral, dose 100 mg/kg; conditions: in vivo
[3] = Volume of distribution in Sprague-Dawley rat at 10 mg/kg, iv; type: ADME, organism-based; conditions: in vivo
[4] = Cmax in CD1 mouse at 300 mg/kg, po; type: ADME, organism-based; design: route oral, dose 300 mg/kg; conditions: in vivo
[5] = Reduction of acetyl carnitine in human hepatocytes derived from methylmalonic acidemia patient at 30 uM pretreated for 30 mins followed by 13C-isoleucine addition and measured after 1 hr by MS/MS analysis; type: functional, Hepatocyte; design: scale not given: the % may be the effect or the level left; conditions: time 90 min, 1.5 h
[6] = target: T1, Multidrug and toxin extrusion protein 1 (Homo sapiens, UniProt Q96FL8); assay: Inhibition of human MATE1 assessed as reduction in MATE1-mediated metformin transport at 14900 uM relative to control
T1 sequence (Q96FL8 whole entry): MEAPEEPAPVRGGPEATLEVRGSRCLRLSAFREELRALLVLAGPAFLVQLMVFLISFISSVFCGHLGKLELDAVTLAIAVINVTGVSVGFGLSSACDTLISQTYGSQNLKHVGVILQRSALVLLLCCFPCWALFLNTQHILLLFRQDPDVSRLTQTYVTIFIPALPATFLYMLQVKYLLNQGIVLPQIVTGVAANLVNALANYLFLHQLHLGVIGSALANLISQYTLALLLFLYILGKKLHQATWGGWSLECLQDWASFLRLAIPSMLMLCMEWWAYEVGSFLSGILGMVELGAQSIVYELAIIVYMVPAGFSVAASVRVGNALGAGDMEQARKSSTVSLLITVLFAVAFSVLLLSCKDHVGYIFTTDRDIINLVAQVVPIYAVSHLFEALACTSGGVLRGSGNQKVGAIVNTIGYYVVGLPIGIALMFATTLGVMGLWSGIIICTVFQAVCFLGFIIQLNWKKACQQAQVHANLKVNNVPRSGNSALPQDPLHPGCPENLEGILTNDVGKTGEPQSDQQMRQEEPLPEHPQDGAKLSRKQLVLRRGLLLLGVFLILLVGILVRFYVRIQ

[7] = Reduction of acetyl-CoA in human hepatocytes derived from propionic acidemia patient pretreated for 30 mins followed by 13C-isoleucine addition and measured after 1 hr by MS/MS analysis; type: functional, cell-based; conditions: hepatocyte
[8] = Drug metabolism in Sprague-Dawley rat plasma assessed as HST5040-glycine metabolite formation at 10 mg/kg administered as single dose using radiolabeled compound by LC/MS analysis; type: ADME, organism-based; conditions: in vivo
[9] = Drug metabolism in Sprague-Dawley rat urine assessed as HST5040-glycine metabolite formation at 10 mg/kg administered as single dose by LC/MS analysis; type: ADME, organism-based; conditions: in vivo
[10] = Drug metabolism in human hepatocytes derived from methylmalonic acidemia patient assessed as formation of 2,2-dimethylbutanoic acid-CoA pretreated for 30 mins followed by 13C-isoleucine addition and measured after 1 hr by MS/MS analysis relative to control; type: ADME, cell-based; conditions: Hepatocyte
[11] = Stability in minipig hepatocytes assessed as unchanged compound at 50 uM measured after 4 hrs; type: ADME, cell-based, Sus scrofa domesticus, Hepatocyte; conditions: pig, read-out: Stabilty
[12] = Reduction of propionyl carnitine in human hepatocytes derived from propionic acidemia patient pretreated for 30 mins followed by 13C-isoleucine addition and measured after 1 hr by MS/MS analysis; type: functional, cell-based; conditions: hepatocyte
[13] = Reduction of CoASH in human hepatocytes at 30 uM pretreated for 30 mins followed by 13C-isoleucine addition and measured after 1 hr by MS/MS analysis relative to control; type: functional, Hepatocyte; design: scale not given: the % may be the effect or the level left; conditions: time 90 min, 1.5 h
[14] = Ratio of drug level in erythrocyte to plasma in human; type: ADME; conditions: erythrocytes and plasma
[15] = Drug metabolism in Sprague-Dawley rat assessed as beta-oxidation by measuring phase1 metabolite formation at 10 mg/kg administered single dose using radiolabeled compound; type: ADME, organism-based; conditions: in vivo
[16] = Oral bioavailability in Sprague-Dawley rat at 50 mg/kg; type: ADME, organism-based; conditions: in vivo
[17] = Protein binding in human plasma at 40 uM incubated for 4 hrs by equilibrium dialysis; type: ADME, cell-free
[18] = Drug metabolism in Beagle dog hepatocytes assessed as formation of 2,2-dimethylbutanoic acid-CoA incubated for 1 hrs by MS/MS analysis; type: ADME, cell-based; conditions: Canis lupus familiaris, Hepatocyte
[19] = Drug metabolism in Sprague-Dawley rat urine assessed as HST5040-glucuronide metabolite formation at 10 mg/kg administered as single dose by LC/MS analysis; type: ADME, organism-based; conditions: in vivo
Cytochrome P450 3A4 [20] = target: T2, Cytochrome P450 3A4 (Homo sapiens, UniProt P08684); assay: Time-dependent inhibition of CYP3A4 in human liver microsomes using midazolam as substrate preincubated for 30 mins; type: ADME
[21] = AUC (0 to infinity) in CD1 mouse at 300 mg/kg, iv; type: ADME, organism-based; design: route intravenous, time infinity, dose 300 mg/kg; conditions: in vivo
[22] = Oral bioavailability in Sprague-Dawley rat at 200 mg/kg; type: ADME, organism-based; conditions: in vivo
[23] = target: T3, Broad substrate specificity ATP-binding cassette transporter ABCG2 (Homo sapiens, UniProt Q9UNQ0); assay: Inhibition of human BCRP assessed as reduction in E3S transport at 24000 uM relative to control
T3 sequence (Q9UNQ0 whole entry): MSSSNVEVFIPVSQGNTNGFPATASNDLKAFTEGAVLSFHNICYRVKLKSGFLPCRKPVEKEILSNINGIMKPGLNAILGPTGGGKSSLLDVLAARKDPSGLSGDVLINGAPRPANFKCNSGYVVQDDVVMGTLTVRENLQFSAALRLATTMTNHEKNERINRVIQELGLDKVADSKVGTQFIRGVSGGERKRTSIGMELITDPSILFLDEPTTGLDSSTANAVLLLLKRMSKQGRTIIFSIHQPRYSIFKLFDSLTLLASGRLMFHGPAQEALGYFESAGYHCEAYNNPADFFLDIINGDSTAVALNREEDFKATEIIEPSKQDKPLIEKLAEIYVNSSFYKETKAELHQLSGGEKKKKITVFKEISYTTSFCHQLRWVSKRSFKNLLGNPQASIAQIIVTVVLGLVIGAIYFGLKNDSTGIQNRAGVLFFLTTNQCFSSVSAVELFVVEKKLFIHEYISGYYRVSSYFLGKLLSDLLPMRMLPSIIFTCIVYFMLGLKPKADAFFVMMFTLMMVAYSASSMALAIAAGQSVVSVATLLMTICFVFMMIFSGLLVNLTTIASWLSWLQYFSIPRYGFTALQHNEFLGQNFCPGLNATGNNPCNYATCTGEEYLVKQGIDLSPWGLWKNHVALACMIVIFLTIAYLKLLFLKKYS

[24] = Oral bioavailability in Sprague-Dawley rat at 10 mg/kg; type: ADME, organism-based; conditions: in vivo
[25] = Induction of toxicity in minipig assessed as increase in albumin to […] ratio at 300 mg/kg/day; type: organism-based, Sus scrofa domesticus; conditions: pig, in vivo
[26] = Drug metabolism in human hepatocytes assessed as formation of 2,2-dimethylbutanoic acid-CoA pretreated for 30 mins followed by 13C-isoleucine addition and measured after 1 hr by MS/MS analysis relative to control; type: ADME, cell-based; conditions: Hepatocyte
[27] = Reduction of propionyl-CoA in human hepatocytes derived from propionic acidemia patient at 100 uM pretreated for 30 mins followed by 13C-isoleucine addition and measured after 1 hr by MS/MS analysis relative to control; type: functional, Hepatocyte; design: scale not given: the % may be the effect or the level left; conditions: time 90 min, 1.5 h
Cytochrome P450 3A4 [28] = target: T2, Cytochrome P450 3A4; assay: Direct inhibition of CYP3A4 in human liver microsomes using testosterone as substrate; type: ADME

T2 sequence (P08684 whole entry): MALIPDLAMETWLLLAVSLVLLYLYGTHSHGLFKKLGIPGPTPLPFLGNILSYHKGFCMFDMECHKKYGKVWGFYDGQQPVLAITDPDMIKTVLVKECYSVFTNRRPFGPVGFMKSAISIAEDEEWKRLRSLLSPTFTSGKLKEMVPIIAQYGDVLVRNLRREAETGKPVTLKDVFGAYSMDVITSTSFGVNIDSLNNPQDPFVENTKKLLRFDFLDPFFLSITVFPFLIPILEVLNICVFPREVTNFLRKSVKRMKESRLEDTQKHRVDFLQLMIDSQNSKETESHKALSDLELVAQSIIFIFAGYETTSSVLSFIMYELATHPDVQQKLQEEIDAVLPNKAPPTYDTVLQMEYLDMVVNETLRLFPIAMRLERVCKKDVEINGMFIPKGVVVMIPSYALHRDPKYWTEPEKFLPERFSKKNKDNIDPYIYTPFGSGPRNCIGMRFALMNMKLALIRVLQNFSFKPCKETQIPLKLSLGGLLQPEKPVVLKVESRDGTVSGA

Work on CCC(C)(C)C(=O)O [DIMEBUTIC ACID] yielded a fraction unbound at 4 h, 40 µM [1] of 0.55, a Cmax [2] of 118 µg/mL and a Vd [3] of 1.22 L/kg. For the same compound, the Cmax [4] was 465 µg/mL, the Activity [5] was 44.6% and the “inhibition (INH)” value [6] was “Not Active”. The EC50 [7] was 2.3 µM, the Drug metabolism [8] was “Metabolite_Detected” and the Drug metabolism [9] was “Metabolite_Detected”. For the same compound, the EC50 [10] was 3.5 µM, the remaining at 4 h, 50 µM [11] was 86% and the EC50 [12] was 2.6 µM. The Activity [13] was -35.2%, the Kp [14] was 0.343 and the Drug metabolism [15] was “Metabolite_Notdetected”. For the same compound, the bioavailability [16] was 68.3%, the PPB [17] was 0% and the EC50 [18] was 60 µM. For the same compound, the Drug metabolism [19] was “Metabolite_Detected”, the IC50 (Cytochrome P450 3A4 [20]) was greater than 10000 µM and the AUC(0-inf) [21] was 1250 µg·h/mL. For the same compound, the bioavailability [22] was 126%, the “inhibition (INH)” value [23] was “Not Active” and the bioavailability [24] was 57.1%. The Activity [25] was “Toxic”, the EC50 [26] was 8.3 µM and the Activity [27] was 87%. The IC50 (Cytochrome P450 3A4 [28]) was greater than 10000 µM.
